Reference: patent US7534913B2, “Crystalline form of nateglinide” (Teva Pharmaceutica Industries Ltd., priority 2002, dated 2009)

Assays:
[1] = by DSC, according to U.S. Pat. No. 5,463,116; cited from earlier work
[2] = Thermal stability: transformation of crystalline forms on drying or heating, form by XRPD; assay type: physicochemical; details: for form obtained upon drying / heating: generally about 40° C. to about 80° C.
Procedure: The various crystalline forms are related to each other in that drying of one form may result in a transformation to another form, namely nateglinide Forms A, B, D, E, F, G, H, I, J, K, L, M, N, Q, S, T, V, Z, α, β, δ,γ, ε, θ and Ω. The drying is carried out by heating a sample under ambient or reduced pressure. Generally, a preferred temperature is from about 40° C. to about 80° C., more preferably under reduced pressure. […] The term “stable” as used herein refers to a polymorphic change of less than about 5% by weight, more preferably less than about 2%, particularly for Form δ.
Form γ may also be prepared by heating Form J containing seeds of Form γ under similar conditions.
• X-Ray diffraction was performed on X-Ray powder diffractometer, Scintag®, variable goniometer, Cu-tube, solid state detector. Sample holder: A round standard aluminum sample holder with round zero background quartz plate. • The sample was put on the sample holder and immediately analyzed as is. Scanning parameters: Range: 2-40 deg 2θ, Continuos Scan, Rate: 3 deg./min. DSC: • DSC821^e Mettler Toledo®, Sample weight: 3-5 mg, Heating rate: 10° C./min, Number of holes in the crucible: 3 TGA: • Mettler TG50®, Sample weight: 7-15 mg, Heating rate: 10° C./min FTIR: • Perkin-Elmer®, Spectrum One FTIR spectrometer, Range: 4000-400 cm-1, no. of scans: 16, resolution: 4.0 cm-1, DRIFT technique.
Nateglinide Form delta (10 grams), with about 3% heptane (wt/wt), was dried in a fluidized bed drier for 4 hours at 60° C.
Sample of nateglinide form U (˜1 g) was introduced into a 6-gram vial and heated over 8.5 h in a 100° C. oil bath. The vial were extracted from the bath.
Sample of nateglinide form U (˜0.5 g) was heated to 120° C. for 1 h in an atmospheric pressure.
Sample of nateglinide form δ (˜0.5 g) was heated to 120° C. for 1 h in an atmospheric pressure.
The product of example 11 was dried at 50° C. in a vacuum oven overnight, and analyzed by XRD.
Nateglinide (40 grams) Form delta (1.5% heptane) was dried in a stirred reactor (7-10 rpm) under 60 mmHg vacuum and at 60° C.

[3] = heating under ambient or reduced pressure

In the case of `CC(C)[C@H]1CC[C@H](C(=O)N[C@H](Cc2ccccc2)C(=O)O)CC1` [Form B, nateglinide], the “stability of crystals during grinding” value [1] is given as “unstable and susceptible to change during grinding”.
For `CC(C)[C@H]1CC[C@H](C(=O)N[C@H](Cc2ccccc2)C(=O)O)CC1` [Form Ω, nateglinide], the “form by XRD after drying in a vacuum oven” value ([2]; wet sample, 50° C., vacuum oven, overnight) was “mixture of Form omega and Form Z”.
In the case of `CC(C)[C@H]1CC[C@H](C(=O)N[C@H](Cc2ccccc2)C(=O)O)CC1` [acetonitrile solvate of Form Epsilon, nateglinide], the “form obtained upon drying / heating” value [2, 3] was “Form B”.
In the case of `CC(C)[C@H]1CC[C@H](C(=O)N[C@H](Cc2ccccc2)C(=O)O)CC1` [delta], the “polymorph after drying in a stirred reactor” value ([2]; 60 mmHg vacuum, 60° C., 6 hours, 7-10 rpm, starting with 1.5% heptane) was “remained delta form” and the “polymorphic form after drying in a fluidized bed drier” value ([2]; 4 hours at 60° C., starting with about 3% heptane (wt/wt)) was “delta”.
With `CC(C)[C@H]1CC[C@H](C(=O)N[C@H](Cc2ccccc2)C(=O)O)CC1` [nitromethane solvates of Form Epsilon, nateglinide] the “form obtained upon drying / heating” value [2, 3] was “Forms H or P”.
In the case of `CC(C)[C@H]1CC[C@H](C(=O)N[C@H](Cc2ccccc2)C(=O)O)CC1` [sigma], the “thermal stability (conversion to another form upon heating)” value [2, 3] was “thermally stable”.
